Our source for the IC50 values is US20210128566A1, “NOVEL FUNCTIONALIZED PURINE-2,6-DIONES AND THEIR USE IN MEDICINE” (THOMAS HELLEDAYS STIFTELSE FÖR MEDICINSK FORSKNING, priority 2017, published 2021).

The structures appear in SMILES notation. pIC50: −log10 of the molar value.

In the first assay the target is recombinant human NUDT5 (Homo sapiens, UniProt Q9UKK9). The assay can be described thus: NUDT5 inhibitor activity by malachite green reporter assay. The format is biochemical. The note with it: Table 3; 6 nM NUDT5, 50 μM ADP-Ribose, 15 minutes at room temperature. The method, then:
NUDT5 inhibitors were evaluated using a coupled enzymatic assay with detection of inorganic phosphate (Pi) using the malachite green assay. Following enzymatic hydrolysis of ADP-Ribose (Sigma-Aldrich A0572) by NUDT5, to yield AMP and ribose-5-phosphate, the latter product is continuously processed by a significant excess of alkaline phosphatase (Sigma-Aldrich, P0114). Formation of Pi is quantified based on the green complex (that absorbs at 630 nm) formed between malachite green and molybdate according to published procedure (Baykov, A. A., Evtushenko, O. A. and Avaeva, S. M., Anal Biochem, 171, 266-270 (1988)). Assay buffer consisted of 10 mM Tris-acetate at pH 8.0, 40 mM sodium chloride, 10 mM magnesium acetate, 0.005% Tween-20 and 1 mM dithiothreitol (DTT). The final conditions consisted of 6 nM recombinant human NUDT5, 50 μM ADP-Ribose and 10 U/ml of calf intestine alkaline phosphatase. The plates with compounds, enzymes and substrate were incubated at room temperature for 15 minutes, after which the reaction was terminated and the signal developed by the addition of the malachite green reagent using a MultiDrop (Thermo Scientific). Following vigorous shaking on plate shakers for a minimum of eight minutes the absorbance was read in a microplate reader (HidexSense) using a filter at 630 nm and a read time of 0.1 s per well. Inhibitors were used in dilutions from 100 μM to 1.7 nM in 3-fold dilution steps. Experiments were run in duplicate and confirmed in two independent experiments. IC50 values were determined by curve fitting using ExcelFit.
In general terms: In a reporter assay the amount or activity of a reporter protein is the signal.
As a reminder, the pIC50 is −log10 of the IC50, conventionally taken in molar units. Regarding `CC1CN(c2nc3c(c(=O)n(C)c(=O)n3C)n2Cc2nnc(-c3ccc(Cl)c(Cl)c3)o2)CC(C)N1` (stereo not shown) [Example 29, 7-{[5-(3,4-dichlorophenyl)-1,3,4-oxadiazol-2-yl]methyl}-8-(3,5-dimethylpiperazin-1-yl)-1,3-dimethyl-2,3,6,7-tetrahydro-1H-purine-2,6-dione], the pIC50 was 7.36.

Take `Cn1c(=O)c2c(nc(N3CCC(CO)CC3)n2Cc2nnc(-c3ccc(Cl)c(Cl)c3)o2)n(C)c1=O` [Example 40, 7-{[5-(3,4-dichlorophenyl)-1,3,4-oxadiazol-2-yl]methyl}-8-[4-(hydroxymethyl)piperidin-1-yl]-1,3-dimethyl-2,3,6,7-tetrahydro-1H-purine-2,6-dione]: the pIC50 was 7.69. On the same count and under the same terms, the same measure for `COC1CCN(c2nc3c(c(=O)n(C)c(=O)n3C)n2Cc2nnc(-c3ccc(Cl)c(Cl)c3)o2)CC1` [Example 43, 7-{[5-(3,4-dichlorophenyl)-1,3,4-oxadiazol-2-yl]methyl}-8-(4-methoxypiperidin-1-yl)-1,3-dimethyl-2,3,6,7-tetrahydro-1H-purine-2,6-dione]: 7.57; for `CCN1CCN(c2nc3c(c(=O)n(C)c(=O)n3C)n2Cc2nnc(-c3cccc(C)c3)o2)CC1` [Example 55, 8-(4-ethylpiperazin-1-yl)-1,3-dimethyl-7-{[5-(3-methylphenyl)-1,3,4-oxadiazol-2-yl]methyl}-2,3,6,7-tetrahydro-1H-purine-2,6-dione]: 6.66. The same measure, in the same setting: to `CCCCCCN1CCN(c2nc3c(c(=O)n(C)c(=O)n3C)n2Cc2nnc(-c3ccc(Cl)c(Cl)c3)o2)CC1` [Example 15, 7-{[5-(3,4-dichlorophenyl)-1,3,4-oxadiazol-2-yl]methyl}-8-(4-hexylpiperazin-1-yl)-1,3-dimethyl-2,3,6,7-tetrahydro-1H-purine-2,6-dione] belongs 6.36; to `COCCN1CCN(c2nc3c(c(=O)n(C)c(=O)n3C)n2Cc2nnc(-c3cccc(C)c3)o2)CC1` [Example 57, 8-[4-(2-methoxyethyl)piperazin-1-yl]-1,3-dimethyl-7-{[5-(3-methylphenyl)-1,3,4-oxadiazol-2-yl]methyl}-2,3,6,7-tetrahydro-1H-purine-2,6-dione], under 6.00.

`Cn1c(=O)c2c(nc(N3CCN(CCN)CC3)n2Cc2nnc(-c3ccc(Cl)c(Cl)c3)o2)n(C)c1=O` [Example 30, 8-[4-(2-aminoethyl)piperazin-1-yl]-7-{[5-(3,4-dichlorophenyl)-1,3,4-oxadiazol-2-yl]methyl}-1,3-dimethyl-2,3,6,7-tetrahydro-1H-purine-2,6-dione]: the pIC50 was 7.48.

As for `Cn1c(=O)c2c(nc(N3CCOCC3)n2Cc2nnc(-c3ccc(Cl)c(Cl)c3)o2)n(C)c1=O` [Example 13, 7-{[5-(3,4-dichlorophenyl)-1,3,4-oxadiazol-2-yl]methyl}-1,3-dimethyl-8-(morpholin-4-yl)-2,3,6,7-tetrahydro-1H-purine-2,6-dione], the pIC50 is 6.12. Still for that read-out and setting: the same measure for `Cn1c(=O)c2c(nc(S(=O)(=O)C3CCCCC3)n2Cc2nnc(-c3ccc(Cl)c(Cl)c3)o2)n(C)c1=O` [Example 24, 8-(cyclohexanesulfonyl)-7-{[5-(3,4-dichlorophenyl)-1,3,4-oxadiazol-2-yl]methyl}-1,3-dimethyl-2,3,6,7-tetrahydro-1H-purine-2,6-dione]: 7.64; for `CC1CN(c2nc3c(c(=O)n(C)c(=O)n3C)n2Cc2nnc(-c3ccc(Cl)c(Cl)c3)o2)CCN1` (stereo not shown) [Example 33, 7-{[5-(3,4-dichlorophenyl)-1,3,4-oxadiazol-2-yl]methyl}-1,3-dimethyl-8-(3-methylpiperazin-1-yl)-2,3,6,7-tetrahydro-1H-purine-2,6-dione]: 7.75; for `CN1CCN(c2nc3c(c(=O)n(C)c(=O)n3C)n2Cc2nnc(-c3ccc(Cl)c(Cl)c3)o2)CC1` [Example 18, 7-{[5-(3,4-dichlorophenyl)-1,3,4-oxadiazol-2-yl]methyl}-1,3-dimethyl-8-(4-methylpiperazin-1-yl)-2,3,6,7-tetrahydro-1H-purine-2,6-dione]: 6.82. The same measure, in the same setting: the same measure for `Cn1c(=O)c2c(nc(N3CCC(CCO)CC3)n2Cc2nnc(-c3ccc(Cl)c(Cl)c3)o2)n(C)c1=O` [Example 20, 7-{[5-(3,4-dichlorophenyl)-1,3,4-oxadiazol-2-yl]methyl}-8-[4-(2-hydroxyethyl)piperidin-1-yl]-1,3-dimethyl-2,3,6,7-tetrahydro-1H-purine-2,6-dione]: 7.52; for `CC1CCN(c2nc3c(c(=O)n(C)c(=O)n3C)n2Cc2nnc(-c3ccc(Cl)c(Cl)c3)o2)CC1` [Example 10, 7-{[5-(3,4-dichlorophenyl)-1,3,4-oxadiazol-2-yl]methyl}-1,3-dimethyl-8-(4-methylpiperidin-1-yl)-2,3,6,7-tetrahydro-1H-purine-2,6-dione]: 7.64; for `Cn1c(=O)c2c(nc(N3CCCC(F)C3)n2Cc2nnc(-c3ccc(Cl)c(Cl)c3)o2)n(C)c1=O` (stereo not shown) [Example 41, 7-{[5-(3,4-dichlorophenyl)-1,3,4-oxadiazol-2-yl]methyl}-8-(3-fluoropiperidin-1-yl)-1,3-dimethyl-2,3,6,7-tetrahydro-1H-purine-2,6-dione]: 7.62. Still for that read-out and setting: the same measure for `CCCCCCN1CCN(c2nc3c(c(=O)n(C)c(=O)n3C)n2Cc2nnc(-c3cccc(C)c3)o2)CC1` [Example 53, 8-(4-hexylpiperazin-1-yl)-1,3-dimethyl-7-{[5-(3-methylphenyl)-1,3,4-oxadiazol-2-yl]methyl}-2,3,6,7-tetrahydro-1H-purine-2,6-dione]: 6.09.

The assay is the same for the next values; noted with them: Table 4; 6 nM NUDT5, 50 μM ADP-Ribose, 15 minutes at room temperature.
For `COc1cccc(-c2nnc(Cn3c(N4CCNCC4)nc4c3c(=O)n(C)c(=O)n4C)o2)c1` [Example 111, 7-{[5-(3-methoxyphenyl)-1,3,4-oxadiazol-2-yl]methyl}-1,3-dimethyl-8-(piperazin-1-yl)-2,3,6,7-tetrahydro-1H-purine-2,6-dione], the negative-log IC50 (pIC50) was 6.92.

As for `Cc1ccc(-c2cc(Cn3c(N4CCNCC4)nc4c3c(=O)n(C)c(=O)n4C)no2)cc1` [Example 79, 1,3-dimethyl-7-{[5-(4-methylphenyl)-1,2-oxazol-3-yl]methyl}-8-(piperazin-1-yl)-2,3,6,7-tetrahydro-1H-purine-2,6-dione], the pIC50 was 6.28. Take `CCOC(=O)c1cn2c(n1)CN(c1nc3c(c(=O)n(C)c(=O)n3C)n1Cc1nnc(-c3ccc(Cl)c(Cl)c3)o1)CC2` [Example 81, ethyl 7-(7-{[5-(3,4-dichlorophenyl)-1,3,4-oxadiazol-2-yl]methyl}-1,3-dimethyl-2,6-dioxo-2,3,6,7-tetrahydro-1H-purin-8-yl)-5H,6H,7H,8H-imidazo[1,2-a]pyrazine-2-carboxylate]: the pIC50 was 6.83. Still for that read-out and setting: the same measure for `Cn1c(=O)c2c(nc(Cl)n2Cc2nnc(-c3ccc(Cl)nc3)o2)n(C)c1=O` [Example 95, 8-chloro-7-{[5-(6-chloropyridin-3-yl)-1,3,4-oxadiazol-2-yl]methyl}-1,3-dimethyl-2,3,6,7-tetrahydro-1H-purine-2,6-dione]: 5.86.

`Cn1c(=O)c2c(nc(NCC(=O)OC(C)(C)C)n2Cc2nnc(-c3ccc(Cl)c(Cl)c3)o2)n(C)c1=O` [Example 84, tert-butyl 2-[(7-{[5-(3,4-dichlorophenyl)-1,3,4-oxadiazol-2-yl]methyl}-1,3-dimethyl-2,6-dioxo-2,3,6,7-tetrahydro-1H-purin-8-yl)amino]acetate]: the pIC50 is 7.03. Turning to `Cn1c(=O)c2c(nc(N3CCNCC3)n2Cc2nnc(-c3ccc4cc[nH]c4c3)o2)n(C)c1=O` [Example 120, 7-{[5-(1H-indol-6-yl)-1,3,4-oxadiazol-2-yl]methyl}-1,3-dimethyl-8-(piperazin-1-yl)-2,3,6,7-tetrahydro-1H-purine-2,6-dione], the negative logarithm of the IC50 (pIC50) is 7.09. On the same count and under the same terms, the same measure for `COc1cc(-c2nnc(Cn3c(N4CCNCC4)nc4c3c(=O)n(C)c(=O)n4C)o2)ccc1Cl` [Example 117, 7-{[5-(4-chloro-3-methoxyphenyl)-1,3,4-oxadiazol-2-yl]methyl}-1,3-dimethyl-8-(piperazin-1-yl)-2,3,6,7-tetrahydro-1H-purine-2,6-dione]: 7.19; for `Cn1c(=O)c2c(nc(Cl)n2Cc2nc(-c3ccc(Cl)cc3)no2)n(C)c1=O` [Example 69, 8-chloro-7-{[3-(4-chlorophenyl)-1,2,4-oxadiazol-5-yl]methyl}-1,3-dimethyl-2,3,6,7-tetrahydro-1H-purine-2,6-dione]: 6.53; for `Cc1ccc(-c2cc(Cn3c(Cl)nc4c3c(=O)n(C)c(=O)n4C)no2)cc1` [Example 80, 8-chloro-1,3-dimethyl-7-{[5-(4-methylphenyl)-1,2-oxazol-3-yl]methyl}-2,3,6,7-tetrahydro-1H-purine-2,6-dione]: 5.42.

On to `Cn1c(=O)c2c(nc(Cl)n2Cc2nnc(-c3ccc(CS(C)(=O)=O)cc3)o2)n(C)c1=O` [Example 103, 8-chloro-7-({5-[4-(methanesulfonylmethyl)phenyl]-1,3,4-oxadiazol-2-yl}methyl)-1,3-dimethyl-2,3,6,7-tetrahydro-1H-purine-2,6-dione], for which the negative-log IC50 (pIC50) was 4.21.
